Patent US11518779B2, “Inhibitors of DNMT1 as anticancer therapeutic agents” (Victoria Link Limited, priority 2018, dated 2022)

These molecules were tested against DNMT1 (Homo sapiens, UniProt P26358) (assay: DNMT1 inhibition assay (transfer of radioactivity from [Me-3H]-SAM to hemimethylated double-stranded DNA)). Details: 100 nM DNMT1, 1 μM [Me-3H]-SAM, 1 μM 26 bp hemimethylated DNA substrate, 37° C., 2 hours.
Assay type: biochemical
Source text: Human DNMT1 C-terminal catalytic domain gene was codon-optimised for E. coli by DNA2.0. The gene was cloned into the pD431-SR vector, KanR resistance, inducible by IPTG. The codon-optimisation gave yields 5 to 10 times greater than previously published reports (e.g. Song, J., Rechkoblit, O., Bestor, T. H., and Patel, D. J., (2011) Science 331(6020): 1036-1040; and Song, 3., Teplova, M., Ishibe-Murakami, S., and Patel, D. J., (2012) Science 335(6069): 709-712). The protein construct has N-terminal His-tag, a SUMO tag, a SUMO protease cleavage site, and the DNMT-catalytic domain.
DNMT1 inhibitors were assayed by measuring the transfer of radioactivity from tritiated S-adenosylmethionine (SAM) to double-stranded DNA (Du, Q., Z. Wang, Z., and Schramm, V. L., Proc. Natl. Acad. Sci. USA, 2016, 113, 2916-2921). The double stranded DNA molecule contains exactly one hemimethylated CpG located in the centre of the sequence. The design allows one methylation occurrence per DNA molecule, preventing any processive methylation along or across the strand.
[Me-^3H] S-Adenosyl methionine ([Me-^3H]-SAM) was enzymatically synthesized using bacterial chlorinase (SaIL) enzyme (Nat Chem Biol. 2008 Jan.; 4 (1):69-74. Epub 2007 Dec. 2. Discovery and characterization of a marine bacterial SAM-dependent chlorinase. Eustáquio AS^1, Pojer F, Noel J P, Moore B S.), starting from 5′-Chloro-5′-deoxyadenosine and L-[Methyl-^3H]-Methionine (Org Biomol Chem. 2016 Jul. 14; 14(26):6189-92. doi: 10.1039/c6ob00844e. Epub 2016 Jun. 6. Chemoenzymatic synthesis and utilization of a SAM analog with an isomorphic nucleobase. Vranken C^1, Fin A, Tufar P, Hofkens J, Burkart M D, Tor Y.). A reaction (500 μL) containing 500 μCi L-[Methyl-3H]-Methionine (PerkinElmer), 0.3 mM unlabeled methionine, 1 mM 5′-Chloro-5′-deoxyadenosine, 50 mM phosphate buffer pH 7.6 and 20 μM SaIL enzyme was incubated at room temperature. After 2 hours of incubation, reaction was stopped using 50 mM sulfuric acid. The [Me-^3H]-SAM was purified using C-18 reverse-phase HPLC using a gradient (buffer A: 50 mM ammonium acetate pH 4.3; buffer B: 0.1% acetic acid and 50% acetonitrile). The fractions containing [Me-^3H]-SAM were pooled and lyophilized overnight. Purified [Me-^3H]-SAM was always kept frozen at −80° C. until further use.
The DNMT1 assays were carried to determine the IC50 with transition state analogs. The reaction (100 μL) containing 50 mM Tris-HCl pH 8.0, 100 mM KCl, 50 ug/mL BSA, 2 mM DTT, 1 μM freshly prepared [Me-3H]-SAM, 1 μM 26 bp hemimethylated DNA substrate and varying concentrations of each inhibitor ([…]), incubated at 37° C. with 100 nM DNMT1. The reaction fractions (50 μL) were taken at 2 hours. The methylated DNA was purified by using Micro Bio-spin P-30 columns (Bio-Rad). Purified samples were mixed with 10 mL of scintillation liquid (PerkinElmer), and counted for radioactivity in a Tricarb 2910 TR scintillation counter (PerkinElmer). The values obtained in the absence of DNMT1 in the reaction were used as controls. The assay data were analyzed using GraphPad Prism for IC50 calculations. The hemimethylated DNA sequences used in the assays contained 26 bp, as follows: 26a oligo 5′-[…]-3′ [SEQ ID No. 1], and 26bm oligo 5′-ACTCATACCAAT/iMe-dC/GATACCAAGGTAG-3′ [SEQ ID No. 2], where iMe-dC is a 5-methyl-C base.
IC50 values were obtained from plots of percent inhibition versus inhibitor concentration.

Chain of DNMT1 (P26358 whole entry, looked up): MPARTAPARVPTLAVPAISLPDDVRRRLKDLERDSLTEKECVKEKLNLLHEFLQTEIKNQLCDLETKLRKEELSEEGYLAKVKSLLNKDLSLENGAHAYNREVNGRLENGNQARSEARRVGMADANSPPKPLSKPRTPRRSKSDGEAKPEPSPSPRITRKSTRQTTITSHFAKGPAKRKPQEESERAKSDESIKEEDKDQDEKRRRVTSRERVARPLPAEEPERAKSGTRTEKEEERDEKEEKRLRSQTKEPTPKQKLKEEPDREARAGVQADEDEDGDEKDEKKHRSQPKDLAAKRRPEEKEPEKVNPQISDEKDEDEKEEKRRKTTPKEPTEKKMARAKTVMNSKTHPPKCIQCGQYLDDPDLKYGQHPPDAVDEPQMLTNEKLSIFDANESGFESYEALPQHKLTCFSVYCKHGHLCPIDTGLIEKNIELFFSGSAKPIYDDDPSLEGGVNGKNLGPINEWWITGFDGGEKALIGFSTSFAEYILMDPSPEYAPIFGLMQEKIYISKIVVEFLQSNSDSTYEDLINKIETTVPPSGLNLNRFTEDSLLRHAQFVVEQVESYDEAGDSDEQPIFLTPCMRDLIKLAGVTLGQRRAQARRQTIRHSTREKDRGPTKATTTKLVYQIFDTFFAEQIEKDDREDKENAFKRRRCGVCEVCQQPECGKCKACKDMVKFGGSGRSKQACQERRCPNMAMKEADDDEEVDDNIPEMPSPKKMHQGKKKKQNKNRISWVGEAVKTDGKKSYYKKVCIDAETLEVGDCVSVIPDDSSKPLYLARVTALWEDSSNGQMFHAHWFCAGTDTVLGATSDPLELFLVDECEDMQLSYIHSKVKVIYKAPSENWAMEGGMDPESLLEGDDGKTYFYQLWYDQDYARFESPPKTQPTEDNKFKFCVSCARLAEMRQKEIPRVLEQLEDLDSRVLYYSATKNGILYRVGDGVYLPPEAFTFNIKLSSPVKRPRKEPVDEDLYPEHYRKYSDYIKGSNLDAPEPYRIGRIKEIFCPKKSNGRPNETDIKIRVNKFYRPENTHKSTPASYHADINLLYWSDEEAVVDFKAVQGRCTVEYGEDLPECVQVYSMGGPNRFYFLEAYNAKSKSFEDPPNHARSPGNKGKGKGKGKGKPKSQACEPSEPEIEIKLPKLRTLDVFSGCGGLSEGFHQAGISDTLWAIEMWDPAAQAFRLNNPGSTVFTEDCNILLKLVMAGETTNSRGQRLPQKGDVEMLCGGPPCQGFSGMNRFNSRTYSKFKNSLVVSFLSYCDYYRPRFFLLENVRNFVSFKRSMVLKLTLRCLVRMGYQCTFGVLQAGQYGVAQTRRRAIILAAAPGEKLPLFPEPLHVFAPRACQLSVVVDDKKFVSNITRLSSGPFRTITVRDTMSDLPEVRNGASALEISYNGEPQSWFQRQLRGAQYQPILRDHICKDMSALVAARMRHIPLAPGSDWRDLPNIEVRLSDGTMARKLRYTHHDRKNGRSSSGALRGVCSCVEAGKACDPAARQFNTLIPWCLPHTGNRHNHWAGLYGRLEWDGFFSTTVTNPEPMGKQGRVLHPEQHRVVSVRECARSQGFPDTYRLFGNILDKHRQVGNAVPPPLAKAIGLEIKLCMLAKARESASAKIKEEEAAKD

SMILES	IC50 [µM]
Nc1nc(=O)n([C@H]2C[C@H](O)[C@@H](CO)O2)cc1CN(CC[C@H](N)C(=O)O)C[C@H]1O[C@@H](n2cnc3c(N)ncnc32)[C@H](O)[C@@H]1O [Compound 7, (S)-2-amino-4-(((4-amino-1-((2R,4S,5R)-4-hydroxy-5-(hydroxymethyl)tetrahydrofuran-2-yl)-2-oxo-1,2-dihydropyrimidin-5-yl)methyl)(((2R,3S,4R,5R)-5-(6-amino-9H-purin-9-yl)-3,4-dihydroxytetrahydrofuran-2-yl)methyl)amino)butanoic acid]	0.7 ± 0.1
Nc1nc(=O)n(C2C[C@H](O)[C@@H](CO)O2)cc1CCCN(CC[C@H](N)C(=O)O)C[C@H]1O[C@@H](n2cnc3c(N)ncnc32)[C@H](O)[C@@H]1O (stereo in doubt) [Compound 33, (S)-2-amino-4-((3-(4-amino-1-((2S,4S,5R)-4-hydroxy-5-(hydroxymethyl)tetrahydrofuran-2-yl)-2-oxo-1,2-dihydropyrimidin-5-yl)propyl)(((2R,3S,4R,5R)-5-(6-amino-9H-purin-9-yl)-3,4-dihydroxytetrahydrofuran-2-yl)methyl)amino)butanoic acid]	0.8 ± 0.1
Nc1nc(=O)n(C2C[C@H](O)[C@@H](CO)O2)cc1SCCN(CC[C@H](N)C(=O)O)C[C@H]1O[C@@H](n2cnc3c(N)ncnc32)[C@H](O)[C@@H]1O (stereo in doubt) [Compound 42, (S)-2-amino-4-((2-((4-amino-1-((2S,4S,5R)-4-hydroxy-5-(hydroxymethyl)tetrahydrofuran-2-yl)-2-oxo-1,2-dihydropyrimidin-5-yl)thio)ethyl)(((2R,3S,4R,5R)-5-(6-amino-9H-purin-9-yl)-3,4-dihydroxytetrahydrofuran-2-yl)methyl)amino)butanoic acid]	15.4 ± 6.2
Nc1nc(=O)n(C2C[C@H](O)[C@@H](CO)O2)cc1CCN(CC[C@H](N)C(=O)O)C[C@H]1O[C@@H](n2cnc3c(N)ncnc32)[C@H](O)[C@@H]1O (stereo in doubt) [Compound 56, (S)-2-amino-4-((2-(4-amino-1-((2S,4S,5R)-4-hydroxy-5-(hydroxymethyl)tetrahydrofuran-2-yl)-2-oxo-1,2-dihydropyrimidin-5-yl)ethyl)(((2R,3S,4R,5R)-5-(6-amino-9H-purin-9-yl)-3,4-dihydroxytetrahydrofuran-2-yl)methyl)amino)butanoic acid]	1.9 ± 0.1

Continued, values first:

IC50 [µM]	SMILES
2.2 ± 0.5	Nc1nc(=O)n([C@H]2C[C@H](O)[C@@H](CO)O2)cc1CNCC(CC[C@H](N)C(=O)O)C[C@H]1O[C@@H](n2cnc3c(N)ncnc32)[C@H](O)[C@@H]1O (stereo partly drawn) [Compound 70, 2-amino-5-[[[4-amino-1-[(2R,4S,5R)-4-hydroxy-5-(hydroxymethyl)tetrahydrofuran-2-yl]-2-oxo-pyrimidin-5-yl]methylamino]methyl]-6-[(2R,3S,4R,5R)-5-(6-aminopurin-9-yl)-3,4-dihydroxy-tetrahydrofuran-2-yl]hexanoic acid]
6 ± 1.8	NC1=NC(=O)N([C@H]2C[C@H](O)[C@@H](CO)O2)CN1CCCCCN(CC[C@H](N)C(=O)O)C[C@H]1O[C@@H](n2cnc3c(N)ncnc32)[C@H](O)[C@@H]1O [Compound 86, (S)-2-amino-4-((5-(6-amino-3-((2R,4S,5R)-4-hydroxy-5-(hydroxymethyl)tetrahydrofuran-2-yl)-4-oxo-3,4-dihydro-1,3,5-triazin-1(2H)-yl)pentyl)(((2R,3S,4R,5R)-5-(6-amino-9H-purin-9-yl)-3,4-dihydroxytetrahydrofuran-2-yl)methyl)amino)butanoic acid]
